In this experiment the target is ALK enzyme (Homo sapiens, UniProt Q9UM73). The experiment in a line: In-vitro ALK kinase inhibitory activity (HTRF kinEASE TK kit). Type of experiment: biochemical. To be noted: inhibitory activity for ALK enzyme, read-out: IC50 range. The procedure: Anaplastic Lymphoma Kinase (ALK) Inhibitory Activity The in-vitro kinase assay was performed using the HTRF kinEASE TK kit available from Cisbio. The operation steps are indicated in the instructions of the kit. This method was used to detect the inhibitory effect of the compound to be tested on the activity of ALK enzymes in vitro, including wild-type ALK (Cat.PV3867, Invitrogen), ALK L1196M (Cat. PV6168, Life technologies), and ALK F1174L (Cat. PV6160, Life technologies). The specific operation steps were as follows. […] In addition to the control wells, 4 μL of the diluted compound solution to be tested was added to the reaction wells, and 4 μL of the 2.5% DMSO solution corresponding to the ALK enzyme previously formulated was added to the control wells. (2) 2 μL of a TK-biotin substrate solution previously formulated in a substrate concentration corresponding to the ALK enzyme was added to all reaction wells. (3) 2 μL of a previously prepared enzyme solution of corresponding concentration was added to all the reaction wells except the negative wells, and 2 μL of the 1× kinase buffer corresponding to the enzyme was added to the negative wells to make up the volume. The plate was sealed with a membrane, and incubated for 10 min at room temperature after mixing uniformly, such that the compounds were bond to the enzyme fully. (4) 2 μL of an ATP solution in a concentration corresponding to the ALK enzyme was added to all the reaction wells to initiate the kinase reaction, where the enzyme reaction time by ALK was 60 minutes. (5) An ALK test solution was prepared 5 minutes before the end of the kinase reaction. Streptavidin-XL665 and TK antibody europium cryptate (1:100) solutions for assay having a concentration corresponding to the enzyme were prepared using the detection buffer in the kit. (6) After the completion of the kinase reaction, 5 μl of diluted Streptavidin-XL665 was added to all the reaction wells respectively, and mixed uniformly, and then the diluted TK antibody europium cryptate solution for assay was added immediately. (7) The plate was sealed, mixed uniformly and allowed to react at room temperature for 1 h. The fluorescence signal (excitation at 320 nm, and emission at 665 nm and 615 nm) was detected using the ENVISION instrument (Perkinelmer). The inhibition rate for each well was calculated from the values of the fully active wells and the background signal wells. The values of replicated wells were averaged, and the half-maximal inhibitory activity (IC50) of each compound to be tested was fitted with a professional drawing analysis software PRISM 5.0.
Sequence of ALK enzyme (Q9UM73 19-1620 limits assumed): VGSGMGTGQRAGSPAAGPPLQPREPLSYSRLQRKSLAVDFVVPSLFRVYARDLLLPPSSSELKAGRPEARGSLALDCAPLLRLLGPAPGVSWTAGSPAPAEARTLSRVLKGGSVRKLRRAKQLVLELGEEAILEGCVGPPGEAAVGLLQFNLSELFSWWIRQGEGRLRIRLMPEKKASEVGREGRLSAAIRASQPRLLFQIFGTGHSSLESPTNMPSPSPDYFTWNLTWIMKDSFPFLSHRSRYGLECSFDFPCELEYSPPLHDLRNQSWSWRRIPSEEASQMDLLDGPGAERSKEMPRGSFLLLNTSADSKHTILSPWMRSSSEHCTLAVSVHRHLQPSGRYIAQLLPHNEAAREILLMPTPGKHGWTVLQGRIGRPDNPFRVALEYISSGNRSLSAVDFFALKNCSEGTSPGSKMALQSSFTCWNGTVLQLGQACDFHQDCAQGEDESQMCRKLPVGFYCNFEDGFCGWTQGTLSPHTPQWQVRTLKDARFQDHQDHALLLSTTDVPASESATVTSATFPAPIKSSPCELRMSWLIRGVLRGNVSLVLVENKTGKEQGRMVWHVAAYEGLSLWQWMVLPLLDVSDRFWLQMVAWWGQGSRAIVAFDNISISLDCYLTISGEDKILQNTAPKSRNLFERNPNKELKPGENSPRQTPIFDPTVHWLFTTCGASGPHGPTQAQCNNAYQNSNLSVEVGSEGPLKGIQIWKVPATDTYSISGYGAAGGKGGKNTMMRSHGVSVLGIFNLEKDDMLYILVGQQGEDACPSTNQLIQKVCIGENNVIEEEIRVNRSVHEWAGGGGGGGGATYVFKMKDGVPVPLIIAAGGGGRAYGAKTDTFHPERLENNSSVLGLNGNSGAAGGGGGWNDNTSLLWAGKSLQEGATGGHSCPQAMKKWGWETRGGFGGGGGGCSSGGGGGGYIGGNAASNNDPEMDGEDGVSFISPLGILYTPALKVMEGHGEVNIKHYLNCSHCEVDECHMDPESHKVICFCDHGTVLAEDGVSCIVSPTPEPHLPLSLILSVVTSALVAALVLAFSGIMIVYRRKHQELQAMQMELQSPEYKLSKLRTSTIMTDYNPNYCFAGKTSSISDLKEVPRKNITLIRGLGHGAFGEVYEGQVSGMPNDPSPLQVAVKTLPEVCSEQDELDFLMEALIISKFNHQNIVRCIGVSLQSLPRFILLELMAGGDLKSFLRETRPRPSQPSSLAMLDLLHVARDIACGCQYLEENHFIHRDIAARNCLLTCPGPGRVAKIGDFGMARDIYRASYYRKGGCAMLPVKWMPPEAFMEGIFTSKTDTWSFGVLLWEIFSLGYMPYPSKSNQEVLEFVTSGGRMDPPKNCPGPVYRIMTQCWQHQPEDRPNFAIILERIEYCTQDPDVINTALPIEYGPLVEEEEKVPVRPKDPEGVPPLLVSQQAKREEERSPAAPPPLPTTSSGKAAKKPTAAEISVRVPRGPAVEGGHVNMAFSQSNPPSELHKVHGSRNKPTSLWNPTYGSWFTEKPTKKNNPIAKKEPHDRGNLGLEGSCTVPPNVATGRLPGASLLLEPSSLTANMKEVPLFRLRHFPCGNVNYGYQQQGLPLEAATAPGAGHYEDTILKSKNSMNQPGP
Background: In TR-FRET formats the signal depends on donor and acceptor labels being close together.

For orientation: IC50 means the concentration needed to halve the response being measured.

Regarding `COc1cc(N2CCC(N(C)C)CC2)ccc1Nc1nc(Nc2ccccc2S(=O)(=O)C(C)C)c2ccsc2n1` [Compound I-26, N2-(4-(4-(dimethylamino)piperidin-1-yl)-2-D3-methoxyphenyl)-N4-(2-(isopropylsulfonyl)phenyl)thieno[2,3-d]pyrimidin-2,4-diamine], the IC50 lay in the range of 10 to 100 nM.

As to `COc1cc(N2CCC(N(C)C)CC2)ccc1Nc1nc(Nc2ccccc2S(=O)(=O)C(C)C)c2sccc2n1` [Compound I-27, N2-(4-(4-(dimethylamino)piperidin-1-yl)-2-D3-methoxyphenyl)-N4-(2-(isopropylsulfonyl)phenyl)thieno[3,2-d]pyrimidin-2,4-diamine], the IC50 fell in the range of 10 to 100 nM.

On to `COc1cc(N2CCC(N3CCOCC3)CC2)ccc1Nc1nc(Nc2ccccc2S(=O)(=O)C(C)C)c2ccccc2n1` [Compound I-28, N4-(2-(isopropylsulfonyl)phenyl)-N2-(2-D3-methoxy-4-(4-morpholinopiperidin-1-yl)phenyl)quinazolin-2,4-diamine], for which the IC50 fell in the range of 10 to 100 nM.

For the compound `COc1cc(C2CCNCC2)c(C)cc1Nc1nc(Nc2ccccc2S(=O)(=O)C(C)C)c2ccccc2n1` [Compound I-29, N4-(2-(isopropylsulfonyl)phenyl)-N2-(2-D3-methoxy-5-methyl-4-(piperidin-4-yl)phenyl)quinazolin-2,4-diamine], the IC50 fell in the range of 10 to 100 nM.

Regarding `COc1cc(C2CCNCC2)c(C)cc1Nc1nc(Nc2ccccc2S(=O)(=O)C(C)C)c2cc[nH]c2n1` [Compound I-30, N4-(2-(isopropylsulfonyl)phenyl)-N2-(2-D3-methoxy-5-methyl-4-(piperidin-4-yl)phenyl)-7H-pyrrolo[2,3-d]pyrimidin-2,4-diamine], the IC50 lay in the range of 10 to 100 nM.

Consider `COc1cc(C2CCNCC2)c(C)cc1Nc1nc(Nc2ccccc2S(=O)(=O)C(C)C)c2[nH]ccc2n1` [Compound I-31, N4-(2-(isopropylsulfonyl)phenyl)-N2-(2-D3-methoxy-5-methyl-4-(piperidin-4-yl)phenyl)-5H-pyrrolo[3,2-d]pyrimidin-2,4-diamine], for which the IC50 fell in the range of 10 to 100 nM.

With `COc1cc(C2CCNCC2)c(C)cc1Nc1nc(Nc2ccccc2S(=O)(=O)C(C)C)c2ccsc2n1` [Compound I-32, N4-(2-(isopropylsulfonyl)phenyl)-N2-(2-D3-methoxy-5-methyl-4-(piperidin-4-yl)phenyl)thieno[2,3-d]pyrimidin-2,4-diamine], the IC50 lay in the range of 10 to 100 nM.

As to `COc1cc(N2CCC(N3CCSCC3)CC2)ccc1Nc1ncc(Cl)c(Nc2ccccc2S(=O)(=O)C(C)C)n1` [Compound I-33, 5-chloro-N4-(2-(isopropylsulfonyl)phenyl)-N2-(2-D3-methoxy-4-(4-thiomorpholinopiperidin-1-yl)phenyl)pyrimidin-2,4-diamine], the IC50 was in the range of 1 to 10 nM.

With `COc1cc(N2CCC(N3CCC(N)CC3)CC2)ccc1Nc1ncc(Cl)c(Nc2ccccc2S(=O)(=O)C(C)C)n1` [Compound I-34, N2-(4-(4-amino-[1,4′-bipyridin]-1′-yl)-2-D3-methoxyphenyl)-5-chloro-N4-(2-(isopropylsulfonyl)phenyl)pyrimidin-2,4-diamine], the IC50 fell in the range of 1 to 10 nM.

In the case of `COc1cc(N2CCC(N3CCOCC3)CC2)ccc1Nc1ncc(Cl)c(Nc2ccccc2S(=O)(=O)C(C)C)n1` [Compound I-35, 5-chloro-N4-(2-(isopropylsulfonyl)phenyl)-N2-(2-D3-methoxy-4-(4-morpholinopiperidin-1-yl)phenyl)pyrimidin-2,4-diamine], the IC50 is 1 to 10 nM.

Consider `COc1cc(N2CCC(N(C)C)CC2)ccc1Nc1ncc(Cl)c(Nc2ccccc2P(C)(C)=O)n1` [Compound I-37, (2-((5-chloro-2-((4-(4-(dimethylamino)piperidin-1-yl)-2-D3-methoxyphenyl)amino)pyrimidin-4-yl)amino)phenyl)dimethylphosphorus oxide], for which the IC50 is 1 to 10 nM.

As for `COc1cc(C2CCNCC2)c(C)cc1Nc1ncc(Cl)c(Nc2ccccc2P(C)(C)=O)n1` [Compound I-38, 5-chloro-N4-(2-(dimethylphosphoryl)phenyl)-N2-(2-D3-methoxy-5-methyl-4-(piperidin-4-yl)phenyl)pyrimidin-2,4-diamine], the IC50 is 1 to 10 nM.

As for `COc1cc(C2CCNCC2)ccc1Nc1ncnc(Nc2ccccc2S(=O)(=O)C(C)C)n1` [Compound I-39, N2-(2-(isopropylsulfonyl)phenyl)-N4-(2-D3-methoxy-4-(4-piperidin-4-yl)phenyl)-1,3,5-triazin-2,4-diamine], the IC50 was 1 to 10 nM.

As for `COc1cc(C2CCNCC2)c(C)cc1Nc1ncnc(Nc2ccccc2S(=O)(=O)C(C)C)n1` [Compound I-40, N2-(2-(isopropylsulfonyl)phenyl)-N4-(2-D3-methoxy-5-methyl-4-(piperidin-4-yl)phenyl)-1,3,5-triazin-2,4-diamine], the IC50 fell in the range of 1 to 10 nM.

On to `COc1cc(N2CCNCC2)ccc1Nc1ncnc(Nc2ccccc2S(=O)(=O)C(C)C)n1` [Compound I-41, N2-(2-D3-methoxy-4-(piperazin-1-yl)phenyl)-N4-(2-(isopropylsulfonyl)phenyl)-1,3,5-triazin-2,4-diamine], for which the IC50 is 1 to 10 nM.

On to `COc1cc(N2CCNCC2)c(C)cc1Nc1ncnc(Nc2ccccc2S(=O)(=O)C(C)C)n1` [Compound I-42, N2-(2-D3-methoxy-4-(piperazin-1-yl)-5-methyl-phenyl)-N4-(2-(isopropylsulfonyl)phenyl)-1,3,5-triazin-2,4-diamine], for which the IC50 was 1 to 10 nM.

With `COc1cc(N2CCC(N3CCN(C)CC3)CC2)ccc1Nc1ncnc(Nc2ccccc2S(=O)(=O)C(C)C)n1` [Compound I-43, N2-(2-(isopropylsulfonyl)phenyl)-N4-(2-D3-methoxy-4-(4-(4-methylpiperazin-1-yl)piperidin-1-yl)phenyl)-1,3,5-triazin-2,4-diamine], the IC50 lay within 1 to 10 nM.

For the origin of these results see patent US10647694B2, “Diphenylaminopyrimidine and triazine compound, and pharmaceutical composition and use thereof” (ARROMAX PHARMATECH CO., LTD., priority 2016, dated 2020).
